The target of one experiment is KRAS G12C-BRAF complex (Homo sapiens (Human), UniProt P01116+P62937, G12C). The experiment in a line: KRAS-BRAF with CYPA (500 nM) interaction assay (TR-FRET, Example 136). The experiment is classed as biochemical. The conditions noted are these: KRAS G12C-BRAF disruption. The procedure: In this example, TR-FRET was also used to measure the compound or compound-CYPA dependent disruption of the KRAS G12C-BRAF complex. This protocol was also used to measure disruption of KRAS G12D or KRAS G12V binding to BRAF by a compound of the invention, respectively. In assay buffer containing 25 mM HEPES PH=7.4 (4-(2-hydroxyethyl)-1-piperazineethanesulfonic acid, Thermo, 15630080), 0.002% Tween20, 0.1% BSA, 100 mM NaCl, 5 mM MgCl2, 10 μM GMPPNP (Guanosine 5′-[β,γ-imido]triphosphate trisodium salt hydrate, Sigma, G0635), […] 384-well assay plate at final concentrations of 50 nM, 6.25 nM and 1 nM, respectively. Compound was present in plate wells as a 16-point 3-fold dilution series starting at a final concentration of 10 μM and incubated for 3 hours. A mixture of MAb Anti-6His-XL665 (Cisbio, 61HISXLB) and Mab anti-GST-TB cryptate (Cisbio, 61GSTTLB) was then added at a final concentration of 6.67 nM and 0.21 nM, respectively, and the plate was incubated for an additional 1.5 hours. TR-FRET signal was read on a PHERstar FSX microplate reader (Ex320 nm, Em 665/615 nm). Compounds that facilitate disruption of the KRAS-BRAF complex were identified as those eliciting a decrease in the TR-FRET ratio relative to DMSO control wells.

Experiment [1] concerns phosphorylation of ERK, KRAS G12C in NCI-H358 cells. The experiment in a line: pERK inhibition assay. It is filed as cell-based. The conditions noted are these: Homo sapiens, NCI-H358, 4 h. In short, it runs like this: (§1)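 NCI-H358 (KRAS G12C), AGS (G12D) and SW620 (G12V) cells plated overnight, then treated with compound for 4 h in 0.5% DMSO. After fixing and methanol permeabilisation, phospho-ERK was detected by in-cell ELISA (HRP/TMB, OD450). IC50 from a 4-parameter sigmoidal fit.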

In experiment [2] the test system is phosphorylation of ERK, KRAS G12V in SW620. The experiment in a line: pERK inhibition assay. It is filed as cell-based. The conditions noted are these: Homo sapiens, SW-620, 4 h, SW620 cells. A digest of the protocol:
as §1

Experiment [3] deals with phosphorylation of ERK, KRAS G12D in AGS cells. The experiment in a line: pERK inhibition assay. It is filed as cell-based. The conditions noted are these: Homo sapiens, AGS, 4 h. In short, it runs like this: as §1
Experiment [4] concerns NCI-H358 cells (KRAS G12C). The experiment in a line: Cell viability assay (Cell Counting Kit-8, 3-day). It is filed as cell-based, human. The conditions noted are these: Homo sapiens, NCI-H358, 72 h, NCI-H358, 72 hrs incubation. In short, it runs like this:
(§2)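 Read-out is CCK-8 absorbance (OD450 minus OD650, 2 hrs after reagent), reflecting NADPH after 72 hrs of compound exposure in 0.5% DMSO. Seeding density was 5,000 cells/well for NCI-H358 and 2,000 for AGS and SW620. IC50 derived by 4-parameter sigmoidal fitting.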
(Formazan colour is commonly taken as a measure of viable cells.)

For the next experiment, the system named is SW620 cells (KRAS G12V). The experiment in a line: Cell viability assay (Cell Counting Kit-8, 3-day). The conditions noted are these: Homo sapiens, SW-620; SW620, 72 hrs incubation. It is filed as cell-based, human. A digest of the protocol:
as §2

A further experiment concerns AGS cells (KRAS G12D). The experiment in a line: Cell viability assay (Cell Counting Kit-8, 3-day). The experiment is classed as cell-based, human. The conditions noted are these: Homo sapiens, 72 h, 72 hrs incubation. A digest of the protocol:
as §2

Sequence of KRAS G12C-BRAF complex (P01116-2 other isoform, or with tags, fused parts or gaps G12C): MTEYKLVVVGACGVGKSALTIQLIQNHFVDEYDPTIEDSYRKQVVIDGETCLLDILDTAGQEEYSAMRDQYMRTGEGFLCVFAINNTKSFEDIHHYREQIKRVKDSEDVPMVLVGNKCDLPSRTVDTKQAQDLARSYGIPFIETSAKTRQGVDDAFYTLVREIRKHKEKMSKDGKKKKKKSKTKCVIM
Sequence of KRAS G12C-BRAF complex (P62937 whole entry): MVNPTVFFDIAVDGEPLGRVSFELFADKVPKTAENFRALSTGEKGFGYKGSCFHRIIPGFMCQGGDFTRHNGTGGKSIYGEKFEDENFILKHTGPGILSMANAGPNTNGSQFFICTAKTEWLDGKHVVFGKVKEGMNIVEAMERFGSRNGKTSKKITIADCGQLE

For `CO[C@@H](C)c1ncc(N2CCOCC2)cc1-c1c2c3cc(cc4c3n1CCO4)-c1csc(n1)C[C@H](NC(=O)[C@H]1C[C@@H]1c1cccnc1)C(=O)N1CCC[C@H](N1)C(=O)OCC(C)(C)C2` (atropisomer, axis not shown; (M)) [Example 97, (1S,2S)-N-[(7S,13S)-(20M)-20-[2-[(1S)-1-methoxyethyl]-5-morpholino-3-pyridyl]-17,17-dimethyl-8,14-dioxo-15,24-dioxa-4-thia-9,21,30,31-tetrazahexacyclo[23.3.1.12.19,13 019,27 21,26,]hentriaconta-1 (28),2,5 (31), 19,25 (29),26-hexaen-7-yl]-2-(3-pyridyl)cyclopropanecarboxamide], the half-maximal inhibitory concentration (IC50) (in general, the concentration that gives 50% inhibition) amounted to 14.4 nM against KRAS G12C-BRAF complex; 0.4 nM in experiment [1]; 0.3 nM in experiment [2]; 1.4 nM in experiment [3]; 1.9 nM in experiment [4]; 0.3 nM in the experiment with SW620 cells (KRAS G12V). Besides, the IC50 in the experiment on AGS cells (KRAS G12D) stood at 2.6 nM.
As to `CO[C@@H](C)c1ncc(N2CCOCC2)cc1-c1c2c3cc(cc4c3n1CCC4)-c1csc(n1)C[C@H](NC(=O)[C@H]1[C@@H]3COC[C@@H]31)C(=O)N1CCC[C@H](N1)C(=O)OCC(C)(C)C2` (atropisomer, axis not shown; (M)) [Example 7, (1S,5R,6r)-N-[(7S,13S)-(20M)-20-[2-[(1S)-1-methoxyethyl]-5-morpholino-3-pyridyl]-17,17-dimethyl-8,14-dioxo-15-oxa-4-thia-9,21,30,31-tetrazahexacyclo[23.3.1.1^2,5.1^9,13.0^19,27.0^21,26]hentriaconta-1 (28),2,5 (31), 19,25 (29),26-hexaen-7-yl]-3-oxabicyclo[3.1.0]hexane-6-carboxamide], the IC50 worked out at 9.4 nM at KRAS G12C-BRAF complex; 1.6 nM in experiment [1]; 1.2 nM in experiment [2]; 7.9 nM in experiment [3]; 2.4 nM in experiment [4]; 0.8 nM in the experiment on SW620 cells (KRAS G12V). For the same molecule, the IC50 in the experiment on AGS cells (KRAS G12D) is 13.1 nM.
Take `CO[C@@H](C)c1ncc(N2CCN(C)CC2)cc1-c1c2c3cc(cc4c3n1CCC4)-c1csc(n1)C[C@H](NC(=O)[C@H]1C[C@H]1C)C(=O)N1CCC[C@H](N1)C(=O)OCC(C)(C)C2` (atropisomer, axis not shown; (M)) [Example 33, (1S,2R)-N-[(7S,13S)-(20M)-20-[2-[(1S)-1-methoxyethyl]-5-(4-methylpiperazin-1-yl)-3-pyridyl]-17,17-dimethyl-8,14-dioxo-15-oxa-4-thia-9,21,30,31-tetrazahexacyclo[23.3.1.1^2,5.1^9,13.0^19,27.0^21,26]hentriaconta-1 (28),2,5 (31),19,25 (29),26-hexaen-7-yl]-2-methyl-cyclopropanecarboxamide]: the IC50 against KRAS G12C-BRAF complex was found to be 19.5 nM; in experiment [1], 8.5 nM; in experiment [2], 2.7 nM; in experiment [3], 23.1 nM; in experiment [4], 32.3 nM; in the experiment with SW620 cells (KRAS G12V), 7.4 nM. For the same molecule, in the experiment on AGS cells (KRAS G12D), it took 100 nM to reach half-maximal inhibition (IC50).
Take `CO[C@@H](C)c1ncc(N2CCN(CCOC3CCOC3)CC2)cc1-c1c2c3cc(cc4c3n1CCC4)-c1csc(n1)C[C@H](NC(=O)[C@H]1[C@H](C)[C@@H]1C)C(=O)N1CCC[C@H](N1)C(=O)OCC(C)(C)C2` (stereo partly drawn) [Example 122, (1r,2R,3S)-N-[(7S,13S)-(20M)-20-[2-[(1S)-1-methoxyethyl]-5-[4-(2-tetrahydrofuran-3-yloxyethyl)piperazin-1-yl]-3-pyridyl]-17,17-dimethyl-8,14-dioxo-15-oxa-4-thia-9,21,30,31-tetrazahexacyclo[23.3.1.1^2,5.1^9,13.0^19,27.0^21,26]hentriaconta-1 (28),2,5 (31), 19,25 (29),26-hexaen-7-yl]-2,3-dimethyl-cyclopropanecarboxamide]: the IC50 stood at 15.1 nM against KRAS G12C-BRAF complex; 0.6 nM in experiment [1]; 0.2 nM in experiment [2]; 3.5 nM in experiment [3]; 1.8 nM in experiment [4]; 0.5 nM in the experiment with SW620 cells (KRAS G12V). For the same molecule, the IC50 with AGS cells (KRAS G12D) was found to be 3.4 nM.
As for `CO[C@@H](C)c1ncc(N2CCN(C)CC2)cc1-c1c2c3cc(cc4c3n1CC(F)(F)C4)-c1csc(n1)C[C@H](NC(=O)[C@H]1C[C@@H]1C)C(=O)N1CCC[C@H](N1)C(=O)OCC(C)(C)C2` (atropisomer, axis not shown; (M)) [Example 18, (1S,2S)-N-[(7S,13S)-23,23-difluoro-(20M)-20-[2-[(1S)-1-methoxyethyl]-5-(4-methylpiperazin-1-yl)-3-pyridyl]-17,17-dimethyl-8,14-dioxo-15-oxa-4-thia-9,21,30,31-tetrazahexacyclo[23.3.1.1^2,5.1^9,13.0^19,27.0^21,26]hentriaconta-1 (28),2,5 (31),19,25 (29),26-hexaen-7-yl]-2-methyl-cyclopropanecarboxamide], the IC50 against KRAS G12C-BRAF complex was found to be 14.7 nM; in experiment [1] it was 16.8 nM; in experiment [2], 7.4 nM; in experiment [3], 7.7 nM; in experiment [4] it was 18 nM; in the experiment with SW620 cells (KRAS G12V), 2.9 nM. For the same molecule, the IC50 in the experiment with AGS cells (KRAS G12D) was determined as 54.5 nM.
With `CO[C@@H](C)c1ncc(N2CCN(C)CC2)cc1-c1c2c3cc(cc4c3n1CCO4)-c1csc(n1)C[C@H](NC(=O)[C@H]1C[C@@H]1C(F)F)C(=O)N1CCC[C@H](N1)C(=O)OCC(C)(C)C2` (atropisomer, axis not shown; (M)) [Example 34, (1S,2S)-2-(difluoromethyl)-N-[(7S,13S)-(20M)-20-[2-[(1S)-1-methoxyethyl]-5-(4-methylpiperazin-1-yl)-3-pyridyl]-17,17-dimethyl-8,14-dioxo-15,24-dioxa-4-thia-9,21,30,31-tetrazahexacyclo[23.3.1.1^2,5.1^9,13.0^19,27.0^21,26]hentriaconta-1 (28),2,5 (31), 19,25 (29),26-hexaen-7-yl]cyclopropanecarboxamide], the IC50 is 31.8 nM against KRAS G12C-BRAF complex; < 0.6 nM in experiment [1]; < 0.6 nM in experiment [2]; 4.6 nM in experiment [3]; 4.7 nM in experiment [4]; 1.1 nM in the experiment on SW620 cells (KRAS G12V). Half-maximal inhibition in the experiment on AGS cells (KRAS G12D) (IC50) was put at 12.4 nM.
With `CO[C@@H](C)c1ncc(N2CCN3CCOC[C@@H]3C2)cc1-c1c2c3cc(cc4c3n1CCC4)-c1csc(n1)C[C@H](NC(=O)[C@H]1C[C@@H]1C(F)F)C(=O)N1CCC[C@H](N1)C(=O)OCC(C)(C)C2` (atropisomer, axis not shown; (M)) [Example 41, (1S,2S)-N-[(7S,13S)-(20M)-20-[5-[(9αS)-3,4,6,7,9,9a-hexahydro-1H-pyrazino[2,1-c][1,4]oxazin-8-yl]-2-[(1S)-1-methoxyethyl]-3-pyridyl]-17,17-dimethyl-8,14-dioxo-15-oxa-4-thia-9,21,30,31-tetrazahexacyclo[23.3.1.1^2,5.1^9,13.0^19,27.0^21,26]hentriaconta-1 (28),2,5 (31),19,25 (29),26-hexaen-7-yl]-2-(difluoromethyl)cyclopropanecarboxamide], the IC50 came to 23.8 nM on KRAS G12C-BRAF complex; 0.4 nM in experiment [1]; 0.4 nM in experiment [2]; 4.8 nM in experiment [3]; 3.6 nM in experiment [4]; 0.9 nM in the experiment on SW620 cells (KRAS G12V). This molecule had an IC50 in the experiment with AGS cells (KRAS G12D) of 14 nM.
Consider `CO[C@@H](C)c1ncc(N2CCN(C)CC2)cc1-c1c2c3cc(cc4c3n1CCO4)-c1csc(n1)C[C@H](NC(=O)[C@H]1C[C@@H]1c1cccnc1)C(=O)N1CCC[C@H](N1)C(=O)OCC(C)(C)C2` (atropisomer, axis not shown; (M)) [Example 96, (1S,2S)-N-[(7S,13S)-(20M)-20-[2-[(1S)-1-methoxyethyl]-5-(4-methylpiperazin-1-yl)-3-pyridyl]-17,17-dimethyl-8,14-dioxo-15,24-dioxa-4-thia-9,21,30,31-tetrazahexacyclo[23.3.1.1^2,5.1^9,13.0^19,27.0^21,26]hentriaconta-1 (28),2,5 (31),19,25 (29),26-hexaen-7-yl]-2-(3-pyridyl)cyclopropanecarboxamide], for which the IC50 against KRAS G12C-BRAF complex came out at 9.4 nM; in experiment [1], 0.4 nM; in experiment [2], 0.4 nM; in experiment [3] it was 1.2 nM; in experiment [4] it was 1 nM; with SW620 cells (KRAS G12V), 0.2 nM. Besides, in the experiment on AGS cells (KRAS G12D), the IC50 came to 1.7 nM.

Source of the values: patent publication US20240417410A1, “TRICYCLIC COMPOUNDS FOR THE TREATMENT OF CANCER” (Hoffmann-La Roche Inc., priority 2023, published 2024).
